Legend:
DYRK1A = target: T1, DYRK1A (Homo sapiens, UniProt Q13627); test: Cook activity assay (ATP regenerative NADH consuming DYRK1A activity assay); assay type: biochemical
T1 construct: kinase domain of DYRK1A (126–490) was cloned into pET24a with C-terminal His-tag; His-tag (C); made in house; host or cells: E. coli BL21 (DE3) RIL

[1] = test system: hiPSC-derived pancreatic organoids; test: Insulin secretion assay in hiPSC-derived β-cell organoids (ELISA); assay type: cell-based, human; parameters: key to insulin secretion (ELISA): ↑: moderate; ↑↑: most potent
Description: Differentiation of hiPSC into iPSC-derived β-cell islets was carried out following the protocol established by Pellegrini et al. for pluripotent stem cells with slight modifications. A day before differentiation, 800,000 cells were seeded on coated with Geltrex (Gibco) 12 wells plate in Essential 8 medium (Gibco) with Y-27632 10 µM (Abcam). The following culture media were used for differentiation:
M1 medium: MCDB131 (Gibco) + 8 mM D-(þ)-Glucose (Sigma) + 1.23 g/L NaHCO3 (Sigma) + 2% BSA (Sigma) + 0.25 mM Vitamin C (Sigma) + 1% Pen/Strep (Lonza, Basel, Switzerland) + 1% L-glutamine (Lonza);
M2 medium: MCDB131 + 20 mM D-Glucose + 1.754 g/L NaHCO3 + 2% BSA + 0.25 mM Vitamin C + Heparin 10mg/mL (Sigma) + 1% Pen/Strep + 1% L-glutamine. All media were filter-sterilized through a 0.22 µm bottle top filter (Corning, New York, NY, USA). For sequential culture medium changes, small molecules and growth factors were added to the base media immediately before daily exchange. Media switches were as follows: days 0–3: STEMdiff™ Definitive Endoderm Kit ([…], Vancouver, Canada) used following manufacturer instructions; days 4–6: M1 medium + 50 ng/mL KGF (Peprotech, London, UK) + 1:50,000 ITS-X (Invitrogen, Carlsbad, CA, USA); days 7–8: M1 medium + 50 ng/mL KGF + 0.25 µM Sant1 (Sigma) + […] Retinoic acid (RA) (Sigma) + 500 nM PdBU (Millipore, Berlington, MA, United States) + 1:200 ITS-X + 200 nM LDN193189 (only Day 7) (Sigma); days 9–13: M1 medium + 50 ng/mL KGF + 0.25 µM Sant1 + 100 nM RA + 1:200 ITS-X; days 14–18: M2 medium + 0.25 µM Sant1 + 100 nM RA + 1 µM XXI (Millipore) + 10 µM Alk5i II (Selleckchem, Munich, Germany) + 1 µM L-3,30,5-Triiodothyronine (T3) (Sigma) + 20 ng/mL Betacellulin (R&D, Minneapolis, MN, USA) + 1:200 ITS-X.
(§1) The Insulin ELISA (Ultra Sensitive) was used to quantify insulin levels in control and treated organoids and isolated islets from the mouse pancreas (Crystal Chem, Downers Grove, IL, USA). Islets were homogenized in lysis buffer. Obtained buffer lysates and medium samples (after GSIS) were analyzed for total protein level and subsequently processed following the manufacturer’s protocol.

isolated mouse islets = test: Insulin secretion assay in isolated mouse islets (ELISA, immunostaining); assay type: cell-based; parameters: key to insulin secretion (ELISA): ↑: moderate; ↑↑: most potent
Description: as §1
Mice (male, initially 12 weeks old) were sacrificed by cervical vertebral dislocation. Before starting the incision, their bodies were sprayed with 70% EtOH. A hemostatic clamp was placed on both sides of the small intestine, leaving a small pocket to absorb the collagenase solution into the intestine. Next, 3 mL of cold collagenase solution was introduced into the pancreas through the bile duct. The pancreas was removed from the body and placed in a falcon tube containing 2 mL of collagenase solution. The tube was placed in a water bath at 37 °C. It was incubated for 13 min. At the end of this time, the falcon was shaken vigorously. The collagenase was inactivated with FBS. The sample was centrifuged for 30 s (300× g). This step was repeated 3 times. HBSS was then added to the sample and centrifuged two more times at the same speed as before. After the last centrifugation, HBSS was removed and Percoll (1.045 g/mL) (Sigma-Aldrich) was added. The Percoll solution was left to sediment for 5 min. After this time, the islets were collected from the bottom of the falcon. The step was repeated 3 times. Finally, islets were cultured in RPMI-1640 (Pan Biotech) supplemented with 2 mM L-glutamine (Gibco), 10% fetal bovine serum (FBS) and 1% penicillin/streptomycin and the culture medium was changed daily.
The presence of insulin, C-peptide, glucagon, Pdx-1 and Nkx6.1 was assessed in isolated mouse islets. Islets were fixed in PFA (3.8%) for 30 min, washed with PBS and 0.15% Triton X-100 was added for 1.5 h, then washed again with PBS and samples were transferred to 1% BSA + 0.05% Triton X-100 solution for 3 h. After this time, islets were incubated with primary antibody for 12 h at 4 °C. The secondary antibody was then added for 3 h. Next, the islets were incubated for 10 min with Hoechst33342. After incubation, at 37 °C, in the dark, the samples were washed twice with HBSS, the slide was transferred to a microscope table and the cells were visualized under a Zeiss LSM 880 confocal microscope (Carl Zeiss, Jena, Germany) with a 63× immersion objective. Images were analyzed by Zeiss ZEN Software.

INS-1E and MIN6 cells = test: MTT cytotoxicity and cell survival assay, β-cell lines
[2] = high glucose, day 4 after treatment

Work on `O=c1ccc2cnc3ccc(-c4cn[nH]c4)cc3c2n1-c1ccc(F)cc1C(F)(F)F` [AC27, 1-(4-fluoro-2-(trifluoromethyl)phenyl)-9-(1H-pyrazol-4-yl)benzo[h][1, 6]naphthyridin-2-one] yielded a Ki (DYRK1A; Cook assay, DYRK1A 0.5 µM, ATP 128 µM, DYRKtide 1 mM) of 200 ± 300 nM, a Ki (DYRK1A; Cook assay, phosphorylation of substrate peptide) of under 200 nM and a Ki (DYRK1A; Table 2, Biochemistry, unit inferred) of 170 ± 260 nM. The insulin release ([1]; GSIS, compared with untreated control cells) was “markedly increased insulin release”, the “insulin secretion (ELISA)” value ([1]; Table 2, hiPSC) was “↑” and the “insulin secretion (ELISA)” value (isolated mouse islets; Table 2, Isolated islets) was “↑↑”. The “insulin secretion compared with untreated islets” value (isolated mouse islets; after GSIS) was “significantly higher”, the “increase in insulin secretion compared with control islets” value (isolated mouse islets; [2]) was 60% and the “insulin secretion, higher than with harmine” value (isolated mouse islets; [2]) was “ca. 15%”. For the same compound, the “percentage of total insulin released” value (isolated mouse islets; secretion normalized for total insulin content) was “higher”, the “concentration without significant toxic effects” value (INS-1E and MIN6 cells; MTT, 24 h) was “up to 5 μM” and the toxicity (INS-1E and MIN6 cells; Table 2, Cell lines) was “no”.

Reference: paper PMC8467532, “DYRK1A Kinase Inhibitors Promote β-Cell Survival and Insulin Homeostasis” (Cells, 2021)
